Structures are written as SMILES.

The values that follow come from paper PMC3282108 (ACS Chemical Biology, 2008).

The test system of data set [1] is BT474 breast cancer cells. The experiment in a line: WST-1 colorimetric cell proliferation assay, BT474. The format is cell-based, human. To be noted: WST-1, concentration-dependent cell killing. (Formazan colour is commonly taken as a measure of viable cells.)
The subject of data set [2] is HER2. Kind of data set: Western blot of HER2 levels in BT474 cells. The format is cell-based, human. The note with it: compound 8 1 μM, 6, 12, 24 h, 17-AAG 0.178 μM.
In data set [3] the test system is Hsp70. Kind of data set: Western blot of Hsp70 levels in BT474 and SKBR3 cells. To be noted: 17-AAG 0.178 μM, compound 8 1 or 5 μM. The format is cell-based, human. A general note: Immunoblotting shows a protein as a band on a membrane.
For data set [4] the following is noted: cited from earlier work.
Data set [5] deals with cancer patients. To be noted: cited from earlier work.

As for `C=CCNC1=C2C[C@@H](C)C[C@H](OC)[C@H](O)[C@@H](C)/C=C(\C)[C@H](OC(N)=O)[C@@H](OC)/C=C\C=C(/C)C(=O)NC(=CC1=O)C2=O` [Compound 17-AAG, 17-Allylamino-17-demethoxygeldanamycin], in data set [1], the “cell killing selectivity, BT474 versus SKBR3 and MCF-12F” value was “significantly more potent in killing BT474 cells than SKBR3 and normal cells”. Further, the “HER2 levels in BT474 cells” value in data set [2] is on record as “time-dependent decrease in HER2 levels”. In addition, the “Hsp70 levels” value in data set [3] is listed as “significant increase in Hsp70 levels”. For the same compound, in data set [4], the “solubility in aqueous solution” value is given as “low solubility in aqueous solution”. In addition, the “most common dose-limiting side effects” value in data set [5] was “anorexia, nausea, diarrhea, hepatoxicity, fatigue, thrombocytopenia, and anemia”.
